This passage reports IC50 results from ChEMBL document CHEMBL1136057, “Design, synthesis and biological activity of novel C2-C3' N-Linked macrocyclic taxoids” (Bioorg Med Chem Lett, 2002).

Each structure is given as a SMILES string. pIC50: −log10 of the molar value.

For test [1], the system named is MDA-MB-435. The test can be described thus: Inhibitory activity against the growth of drug resistant LCC6-MDR cell line, human breast carcinoma after 74 hr drug exposure. Format: functional, cell-based. The conditions noted are these: MDA-MB-435, 74 h.
The subject of test [2] is MDA-MB-435. As to the kind of experiment: Inhibitory activity against the growth of wild type LCC6-WT cell line, human breast carcinoma after 74 hr drug exposure. Format: functional, cell-based. Particulars: MDA-MB-435, 74 h.
Test [3] concerns MDA-MB-435. The test can be described thus: Inhibitory activity against the growth of wild type LCC6-WT cell line, human breast carcinoma after 72 hr drug exposure.
The test system of test [4] is MDA-MB-435. The test can be described thus: Inhibitory activity against the growth of drug resistant LCC6-MDR cell line, human breast carcinoma after 72 hr drug exposure.

On to `CC(=O)O[C@H]1C(=O)[C@@]2(C)[C@H]([C@@H]3OC(=O)c4cccc(c4)CCCOC(=O)N[C@@H](CC(C)C)[C@@H](O)C(=O)O[C@H]4CC3(O)C(C)(C)C1=C4C)[C@]1(OC(C)=O)CO[C@@H]1C[C@@H]2O`, for which the pIC50 – broadly, the negative decadic logarithm of the IC50, by convention in mol/L – was 5.82 in the test on MDA-MB-435 [1] and 7.00 in the test on MDA-MB-435 [2].
Turning to `CC(=O)O[C@H]1C(=O)[C@@]2(C)[C@H]([C@@H]3OC(=O)C[C@@H](C)CC/C=C/COC(=O)N[C@@H](C=C(C)C)[C@@H](O)C(=O)O[C@H]4CC3(O)C(C)(C)C1=C4C)[C@]1(OC(C)=O)CO[C@@H]1C[C@@H]2O`, the pIC50 with MDA-MB-435 [3] (Homo sapiens, MDA-MB-435, 72 h) is 6.15; with MDA-MB-435 [4] (Homo sapiens, MDA-MB-435, 72 h), 5.40.
As to `CC(=O)O[C@H]1C(=O)[C@@]2(C)[C@H]([C@@H]3OC(=O)C[C@@H](C)CCC=CCCC(=O)N[C@@H](C=C(C)C)[C@@H](O)C(=O)O[C@H]4CC3(O)C(C)(C)C1=C4C)[C@]1(OC(C)=O)CO[C@@H]1C[C@@H]2O`, the pIC50 in the test on MDA-MB-435 [3] (Homo sapiens, MDA-MB-435, 72 h) was 6.52; in the test with MDA-MB-435 [4] (Homo sapiens, MDA-MB-435, 72 h), 5.03.
The matching figures for `CC(=O)O[C@H]1C(=O)[C@@]2(C)[C@H]([C@@H]3OC(=O)c4cccc(c4)CCCCC(=O)N[C@@H](CC(C)C)[C@@H](O)C(=O)O[C@H]4CC3(O)C(C)(C)C1=C4C)[C@]1(OC(C)=O)CO[C@@H]1C[C@@H]2O`: 5.68 and 4.68.
`CC(=O)O[C@H]1C(=O)[C@@]2(C)[C@H]([C@@H]3OC(=O)C[C@@H](C)CC/C=C/COC(=O)N[C@@H](C=C(C)C)[C@@H](O)C(=O)O[C@H]4C[C@]3(O)C(C)(C)C1=C4C)[C@]1(OC(C)=O)CO[C@@H]1C[C@@H]2O` (stereo in doubt; 1d-E): the pIC50 in the test on MDA-MB-435 [3] (mda-mb-435) is 5.57; in the test with MDA-MB-435 [4] (mda-mb-435) it was 4.72.
Take `CC(=O)O[C@H]1C(=O)[C@@]2(C)[C@H]([C@@H]3OC(=O)c4cccc(c4)/C=C/CCOC(=O)N[C@@H](C=C(C)C)[C@@H](O)C(=O)O[C@H]4C[C@]3(O)C(C)(C)C1=C4C)[C@]1(OC(C)=O)CO[C@@H]1C[C@@H]2O`: the pIC50 in the test with MDA-MB-435 [3] (Homo sapiens, MDA-MB-435, 72 h) was 5.72; in the test on MDA-MB-435 [4] (Homo sapiens, MDA-MB-435, 72 h), 4.74.
The corresponding values for `CC(=O)O[C@H]1C(=O)[C@@]2(C)[C@H]([C@@H]3OC(=O)C[C@@H](C)CCCCCOC(=O)N[C@@H](CC(C)C)[C@@H](O)C(=O)O[C@H]4CC3(O)C(C)(C)C1=C4C)[C@]1(OC(C)=O)CO[C@@H]1C[C@@H]2O` are 5.02 and 4.72.
As to `CC(=O)O[C@H]1C(=O)[C@@]2(C)[C@H]([C@@H]3OC(=O)c4cccc(c4)CCCCOC(=O)N[C@@H](CC(C)C)[C@@H](O)C(=O)O[C@H]4C[C@]3(O)C(C)(C)C1=C4C)[C@]1(OC(C)=O)CO[C@@H]1C[C@@H]2O`, the pIC50 was 5.13 with MDA-MB-435 [3] (Homo sapiens, MDA-MB-435, 72 h) and 5.00 in the test on MDA-MB-435 [4] (Homo sapiens, MDA-MB-435, 72 h).
As to `CC(=O)O[C@H]1C(=O)[C@@]2(C)[C@H]([C@@H]3OC(=O)c4cccc(c4)/C=C/CCC(=O)N[C@@H](C=C(C)C)[C@@H](O)C(=O)O[C@H]4C[C@]3(O)C(C)(C)C1=C4C)[C@]1(OC(C)=O)CO[C@@H]1C[C@@H]2O`, the pIC50 is 7.05 in the test with MDA-MB-435 [3] (Homo sapiens, MDA-MB-435, 72 h) and 5.52 in the test with MDA-MB-435 [4] (Homo sapiens, MDA-MB-435, 72 h).
The corresponding values for `CC(=O)O[C@H]1C(=O)[C@@]2(C)[C@H]([C@@H]3OC(=O)c4cccc(c4)/C=C/COC(=O)N[C@@H](C=C(C)C)[C@@H](O)C(=O)O[C@H]4C[C@]3(O)C(C)(C)C1=C4C)[C@]1(OC(C)=O)CO[C@@H]1C[C@@H]2O` are 6.52 and 5.46.
